In patent US20240398773A1, “COMPOSITIONS COMPRISING OTESECONAZOLE” (Mycovia Pharmaceuticals, Inc., priority 2021, published 2024):
Read-outs that look alike come from different tables or passages of the source.

Columns and labels:
[1] = Study CL-011 plasma concentrations; format: in vivo; conditions: human
Experimental: A total of 217 subjects were randomized to receive oteseconazole and 109 subjects were randomized to receive placebo. All subjects were followed for 36 weeks after the end of treatment. Blood samples for determination of oteseconazole plasma concentrations were collected at Baseline, Day 14, Week 12, Week 24, Week 36, and Week 48 (End of Study (EOS]). Following the loading dose regimen of 150 mg oteseconazole QD for 7 days, the mean (SD) oteseconazole plasma concentration at Day 14 was 1676.2 (876.27) μg/L.

[2] = Study CL-005 in subjects with onychomycosis, plasma PK; format: in vivo; conditions: human; for AUC(0-t): read-out: AUC0-8; for concentration at 12 weeks: after 12 weeks; for concentration at 12 weeks / concentration at 24 weeks: read-out: plasma exposure; for concentration at 24 weeks: after 24 weeks
Experimental: Within each treatment group, oteseconazole plasma exposures increased throughout the dosing regimen from Day 1 to Week 12 or 24. […] Mean Cmax and AUC0-8 values after the Day 14 dose (completion of the loading dose phase of the study) were similar for the 300 mg 12-week and 300 mg 24-week treatment groups, and for the 600 mg 12-week and 600 mg 24-week treatment groups, as expected.

Study CL-006 plasma PK = format: in vivo, human; conditions: for AUC(0-t): read-out: AUC0-8
From the text: Oteseconazole plasma concentrations continued to increase after the 7-day loading dose portion of the Maintenance Period until the end of dosing in an approximately dose-proportional manner FIG. 3.
Mean plasma PK parameters on Day 7 of the Maintenance Period are presented by treatment group in Table 12.

[3] = Phase 2b study and three Phase 3 studies, plasma concentration at end of dosing; format: in vivo; conditions: human, oral, loading dose Days 1 and 2, then 150 mg weekly, read-out: mean plasma concentrations at the end of the dosing period (Week 14)
Experimental: Oteseconazole dosing regimens will also incorporate a 150 mg once weekly maintenance dose phase for 11 weeks. The initial loading dose given on Days 1 and 2 combined with maintenance dosing of 150 mg oteseconazole weekly for a total treatment duration of 12 weeks was efficacious in preventing recurrence of acute VVC episodes for the duration of the study (48-50 weeks). Based on the PK results from a Phase 2b study and three Phase 3 studies, mean plasma concentrations of approximately 2.5 to 3.5 μg/mL are observed at the end of the dosing period (Week 14).

[4] = 300 mg, Day 14, Low Dose (300 mg), 12 weeks
[5] = 300 mg, Day 14, Low Dose (300 mg), 24 weeks
[6] = 600 mg, Day 14, High Dose (600 mg), 12 weeks
[7] = 600 mg, Day 14, High Dose (600 mg), 24 weeks
[8] = human, plasma, 150 mg, Day 7, 150 mg, 12 weeks
[9] = human, plasma, 150 mg, Day 7, 150 mg, 24 weeks
[10] = human, plasma, 300 mg, Day 7, 300 mg, 12 weeks
[11] = human, plasma, 300 mg, Day 7, 300 mg, 24 weeks

O[C@@](Cn1cnnn1)(c1ccc(F)cc1F)C(F)(F)c1ccc(-c2ccc(OCC(F)(F)F)cc2)cn1 [Oteseconazole, oteseconazole]
concentration at 12 week ([1]; 150 mg, Week 12, maximum concentration, read-out: mean (SD) plasma concentration): 3400 ng/mL | concentration at 48 week ([1]; 150 mg, Week 48, read-out: mean (SD) plasma concentration): 1150 ng/mL | concentration at 14 day ([1]; Day 14, after loading 150 mg QD for 7 days, read-out: mean (SD) plasma concentration): 1680 ng/mL | Cmax [2, 4]: 5120 ng/mL | AUC(0-t) [2, 4]: 36700 ng·h/mL | Cmax [2, 5]: 5510 ng/mL | AUC(0-t) [2, 5]: 40100 ng·h/mL | Cmax [2, 6]: 8290 ng/mL | AUC(0-t) [2, 6]: 59700 ng·h/mL | Cmax [2, 7]: 8390 ng/mL | AUC(0-t) [2, 7]: 61600 ng·h/mL | Tmax ([2]; Day 14, High Dose (600 mg), 12 weeks): 5 h | Tmax ([2]; Day 14, Low Dose (300 mg), 12 weeks): 5 h | concentration at 12 weeks ([2]; 300 mg 12-week treatment group): 6750 ng/mL | concentration at 12 weeks ([2]; 600 mg 12-week treatment group): 12300 ng/mL | concentration at 24 weeks ([2]; 300 mg 24-week treatment group): 9230 ng/mL | concentration at 24 weeks ([2]; 600 mg 24-week treatment group): 15600 ng/mL | Tmax (Study CL-006 plasma PK; Day 7, 150 mg, 24 weeks): 4.93 h | Tmax (Study CL-006 plasma PK; Day 7, 300 mg, 12 weeks): 4.92 h | Cmax (Study CL-006 plasma PK; [8]): 1340 ng/mL | AUC(0-t) (Study CL-006 plasma PK; [8]): 9120 ng·h/mL | Cmax (Study CL-006 plasma PK; [9]): 1800 ng/mL | AUC(0-t) (Study CL-006 plasma PK; [9]): 12300 ng·h/mL | Cmax (Study CL-006 plasma PK; [10]): 2750 ng/mL | AUC(0-t) (Study CL-006 plasma PK; [10]): 20500 ng·h/mL | Cmax (Study CL-006 plasma PK; [11]): 3120 ng/mL | AUC(0-t) (Study CL-006 plasma PK; [11]): 21600 ng·h/mL | concentration at 48 week (Study CL-006 plasma PK; human, plasma, 150 mg oteseconazole): 2150 ng/mL | concentration at 48 week (Study CL-006 plasma PK; human, plasma, 300 mg oteseconazole): 5090 ng/mL | Tmax (Study CL-006 plasma PK; human, plasma, Day 7, 150 mg, 12 weeks, read-out: Tmax): 4 h | half-life (Study CL-006 plasma PK; human, plasma, calculated using a population PK approach): ~171 days | concentration at 14 week [3]: 2500 to 3500 ng/mL
